From patent US20110293593A1, “SIVA 2 STABILIZATION” (YEDA RESEARCH AND DEVELOPMENT CO., LTD., priority 2008, published 2011)
Peptide text beside a SMILES is read from it. * marks the point of attachment. Cbz = O=C(OCc1ccccc1)*

Columns and labels:
[1] = tested on: SIVA2; test: SIVA2 level/stabilization in transfected HEK-293T and EcR-293 cells, western blotting; format: cell-based, human
Method: (A) Expression of SIVA1 and SIVA2 in various cell lines. For each cell line, cellular protein (30 μg) was resolved by 13.5% SDS-PAGE and probed with anti-SIVA antibody. The two lanes at the right show SIVA1 and SIVA2 overexpressed in HEK-293T cells (for each protein, 2 μg cDNA/well in 6-well plates). (B) Several SIVA isoforms are expressed in PBMCs. […] (C) Ligand activation increases the amount of SIVA2 in resting PBMCs. Cells (2×10^6) were treated with the indicated ligands for 8 h and the cell lysates were analyzed by western blotting. […] The cells were stimulated with PHA (1 μg/ml) for 48 h, washed twice with phosphate-buffered saline, and incubated for an additional period of 18 h without PHA. Ligands and genotoxic agents (camptothecin (CPT) 10 μM and cisplatin (CIS) 50 μM) were then applied for 18 h. MG132 was applied for the last 4 h of treatment. Except where otherwise indicated, MG132 was applied in this study at a concentration of […] denotes a non-specific band serving as loading control. […] PBMCs were activated as in FIG. 1d. Ligands were applied to the indicated cell types for 18 h. Semi-quantitative RT-PCR for SIVA message was performed as described in Methods. GAPDH was used as a basis for normalization. […] SIVA2 or SIVA1 plasmids (0.5 μg) were transfected, and 18 h later ligands were applied for 8 h. Total-cell lysates were analyzed by western blotting using anti-SIVA antibody. TNF-induced SIVA2 stabilization was assessed in EcR-293-CD27 cells. (G) Inducibly expressed SIVA2 is stabilized by CD70. EcR-293-CD27-SIVA2 cells (see Methods) were treated with ponasterone and CD70 as indicated. Total-cell lysates were analyzed by western blotting using LDH as the loading control (bottom panel). […] HEK-293T cells were transfected with FLAG-SIVA2 and analyzed 24 h after transfection. MG132 was applied for the last 4 h of treatment. TCL, total cell lysate. (I) Differential effects of genotoxic agents on the expression of SIVA1 and SIVA2. Top: HepG2 cells were treated with CPT for 18 h. When indicated, they were transfected with pSUPER SIVA 30 h prior to CPT application. Cells lysates were analyzed by western blotting using anti-SIVA antibody. Middle: HepG2 cells were exposed to UVC (20 J/m^2) and levels of SIVA proteins were determined after 18 h of treatment. […] Bottom: HEK-293T cells were transfected with 0.5 μg of FLAG-SIVA2. CPT and CD40L were applied, 8 h after transfection, for a further 18 h.
HEK-293T cells cotransfected with NIK and SIVA2 were metabolically labeled with azido-GlcNAc, in-vitro biotinylated, and immunoprecipitated. The biotin-labeled GlcNAc moieties in SIVA2 were detected with streptavidin horseradish peroxidase (HRP). (B) SIVA binds to wheatgerm-agglutinin. The plasmids for SIVA2, alone or together with NIK or TRAF2, were transiently expressed in HEK-293T cells. Lactacystin was applied for the last 6 h of the 24-h treatment period. Lysates were analyzed for expression (right panel) and WGA binding (left panel) of SIVA2. N-acetyl-D-glucosamine (0.5 M) was added as a competitor for WGA binding. […] FLAG-SIVA2 was cotransfected with myc-NIK into HEK-293T cells and immunoprecipitated with anti-FLAG-M2 beads. The immunoprecipitated beads were boiled with 1% SDS and the eluted proteins were treated with […] hexosaminidase as described (Whelan, 2006). The samples were collected after treatment for 4, 8, and 20 h, diluted with WGA binding buffer, and lectin binding was assayed as described in Methods. Immunoprecipitation of the protein with anti-FLAG-M2 beads after treatment for 8 h as described above, followed by western analysis, confirmed that despite having lost the ability to bind to WGA the protein remained intact. ‘Sup’, SIVA protein remaining unbound after the reaction. […] The plasmids were transiently expressed in HEK-293T cells. DON (50 μM) was applied for the last 16 h and MG132 for the last 6 h of the 28-h treatment period. […] The experiment was performed as in (D). […]

[2] = tested on: SIVA2; test: SIVA2 protein level in PBMCs, western blotting with anti-SIVA antibody; format: cell-based, human; conditions: for SIVA2 levels in activated PBMCs: PHA-activated PBMCs, CPT 10 μM, CIS 50 μM for 18 h, MG132 last 4 h; for SIVA2 expression: resting PBMCs, ligands for 8 h
Method: For each cell line, cellular protein (30 μg) was resolved by 13.5% SDS-PAGE and probed with anti-SIVA antibody. The two lanes at the right show SIVA1 and SIVA2 overexpressed in HEK-293T cells (for each protein, 2 μg cDNA/well in 6-well plates). […] Cells (2×10^6) were treated with the indicated ligands for 8 h and the cell lysates were analyzed by western blotting. […] The cells were stimulated with PHA (1 μg/ml) for 48 h, washed twice with phosphate-buffered saline, and incubated for an additional period of 18 h without PHA. Ligands and genotoxic agents (camptothecin (CPT) 10 μM and cisplatin (CIS) 50 μM) were then applied for 18 h. MG132 was applied for the last 4 h of treatment. Except where otherwise indicated, MG132 was applied in this study at a concentration of […] denotes a non-specific band serving as loading control. […] PBMCs were activated as in FIG. 1d. Ligands were applied to the indicated cell types for 18 h. Semi-quantitative RT-PCR for SIVA message was performed as described in Methods. GAPDH was used as a basis for normalization. […] SIVA2 or SIVA1 plasmids (0.5 μg) were transfected, and 18 h later ligands were applied for 8 h. Total-cell lysates were analyzed by western blotting using anti-SIVA antibody. […] EcR-293-CD27-SIVA2 cells (see Methods) were treated with ponasterone and CD70 as indicated. Total-cell lysates were analyzed by western blotting using LDH as the loading control (bottom panel). […] HEK-293T cells were transfected with FLAG-SIVA2 and analyzed 24 h after transfection. MG132 was applied for the last 4 h of treatment. TCL, total cell lysate. […] Top: HepG2 cells were treated with CPT for 18 h. When indicated, they were transfected with pSUPER SIVA 30 h prior to CPT application. Cells lysates were analyzed by western blotting using anti-SIVA antibody. Middle: HepG2 cells were exposed to UVC (20 J/m^2) and levels of SIVA proteins were determined after 18 h of treatment. […] Bottom: HEK-293T cells were transfected with 0.5 μg of FLAG-SIVA2. CPT and CD40L were applied, 8 h after transfection, for a further 18 h.
Cells. Peripheral-blood mononuclear cells (PBMCs) were isolated from buffy-coat samples and cultured as described (Ramakrishnan et al., 2004). Ecdysone-inducible EcR-293-CD27 cell lines expressing SIVA2 (EcR-293-CD27-SIVA2) or SIVA1 (EcR-293-CD27-SIVA1) and EcR-293-CD40 were generated by transfection using the calcium phosphate method according to the instructions of the manufacturer (Invitrogen). All adherent cells—HEK-293T, EcR-293 (Invitrogen), HeLa, HeLa T-REx (Invitrogen), and HepG2—were cultured in Dulbecco's modified Eagle's medium. Both culture media were supplemented with 10% fetal calf serum, 100 U/ml pencillin, and 100 μg/ml streptomycin. The human lymphoblastoid lines Ramos (Human Burkitt's lymphoma cell line) and BJAB (B-lymphoblastoma cell line) were cultured in RPMI medium. Ecdysone-inducible EcR293-CD27 and EcR293-CD40 cell lines were generated by their stable transfection with cDNAs for human CD27 and CD40, respectively. EcR293-CD27 cell lines expressing SIVA2 (EcR293-CD27-SIVA2) or SIVA1 (EcR293-CD27-SIVA1) were generated by transfection using the calcium phosphate method, and myc NIK and myc NIK (K670A) were later introduced into these cells by retroviral transduction and selection with 1 μg/ml puromycin. Ramos cells constitutively expressing myc-NIK were generated by retroviral transduction, followed by selection with 1 μg/ml puromycin. […]

[3] = target: T1, cIAP1 (human, UniProt Q13490 1-618); test: immunoprecipitation of endogenous cIAP1 from transfected HEK293T cells (FIG. 6D right panel)
T1 construct: Also used for general sentences that say only 'cIAP1'; also called endogenous cIAP1
T1 sequence (Q13490 whole entry): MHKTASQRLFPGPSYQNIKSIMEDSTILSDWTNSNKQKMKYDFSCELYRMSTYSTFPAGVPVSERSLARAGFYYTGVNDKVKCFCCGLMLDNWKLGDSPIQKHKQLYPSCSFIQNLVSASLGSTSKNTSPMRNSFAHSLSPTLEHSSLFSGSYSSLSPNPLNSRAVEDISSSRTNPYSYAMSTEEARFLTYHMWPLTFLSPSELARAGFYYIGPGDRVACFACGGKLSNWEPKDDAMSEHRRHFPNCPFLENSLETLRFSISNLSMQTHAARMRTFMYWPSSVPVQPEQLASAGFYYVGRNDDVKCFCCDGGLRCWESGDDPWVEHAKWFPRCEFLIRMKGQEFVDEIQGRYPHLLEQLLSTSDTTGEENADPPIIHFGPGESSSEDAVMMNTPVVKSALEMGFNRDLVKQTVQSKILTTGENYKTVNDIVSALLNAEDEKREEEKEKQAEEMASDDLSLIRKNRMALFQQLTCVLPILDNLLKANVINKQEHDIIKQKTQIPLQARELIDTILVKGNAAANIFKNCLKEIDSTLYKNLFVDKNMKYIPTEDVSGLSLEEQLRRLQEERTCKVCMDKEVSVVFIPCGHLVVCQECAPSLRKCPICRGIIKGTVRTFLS
Method: Left panel: Binding in vitro. […] Right and bottom panels depict binding in transfected HEK293T cells. […] After 28 h the endogenous cIAP1 was immunoprecipitated. MG132 was applied for the last 6 h of incubation. […] After 28 h the transfected proteins were immunoprecipitated and probed for co-precipitated endogenous cIAP1. MG132 was applied for the last 6 h of incubation. […] N/A, not analyzed. The asterisk denotes assessment in the yeast two-hybrid test. […] The indicated plasmids were co-transfected into HEK293T cells.

[4] = tested on: SIVA1; test: SIVA1 protein level in PBMCs, western blotting with anti-SIVA antibody; format: cell-based, human; conditions: resting PBMCs, ligands for 8 h
Method: For each cell line, cellular protein (30 μg) was resolved by 13.5% SDS-PAGE and probed with anti-SIVA antibody. The two lanes at the right show SIVA1 and SIVA2 overexpressed in HEK-293T cells (for each protein, 2 μg cDNA/well in 6-well plates). […] Cells (2×10^6) were treated with the indicated ligands for 8 h and the cell lysates were analyzed by western blotting. […] The cells were stimulated with PHA (1 μg/ml) for 48 h, washed twice with phosphate-buffered saline, and incubated for an additional period of 18 h without PHA. Ligands and genotoxic agents (camptothecin (CPT) 10 μM and cisplatin (CIS) 50 μM) were then applied for 18 h. MG132 was applied for the last 4 h of treatment. Except where otherwise indicated, MG132 was applied in this study at a concentration of […] denotes a non-specific band serving as loading control. […] Semi-quantitative RT-PCR for SIVA message was performed as described in Methods. […] Total-cell lysates were analyzed by western blotting using anti-SIVA antibody. […] Total-cell lysates were analyzed by western blotting using LDH as the loading control (bottom panel). […] HEK-293T cells were transfected with FLAG-SIVA2 and analyzed 24 h after transfection. […] Cells lysates were analyzed by western blotting using anti-SIVA antibody. Middle: HepG2 cells were exposed to UVC (20 J/m^2) and levels of SIVA proteins were determined after 18 h of treatment. […]

[5] = HEK-293T, FLAG-SIVA2, MG132 last 4 h

## CC(=O)N[C@H]1[C@@H](OCc2ccccc2)O[C@H](CO)[C@H](O)[C@@H]1O [BADGP, benzyl-α-GalNAc]
[1]; HEK-293T, NIK + SIVA2, 0.7, 1.4, or 2.0 mM BADGP last 16 h of 28 h
  NIK-induced SIVA2 stabilization: blocks NIK-induced SIVA2 stabilization

## N.N.[Cl][Pt][Cl] [CIS, cisplatin]
[2]
  SIVA2 levels in activated PBMCs: but not genotoxic stress, increase SIVA2 levels

## CC[C@@]1(O)C(=O)OCc2c1cc1n(c2=O)Cc2cc3ccccc3nc2-1 [CPT, camptothecin]
[1]; HEK-293T, FLAG-SIVA2, CPT and CD40L for 18 h
  cytokine (CD40)-induced stabilization/enhancement of SIVA2 under genotoxic agent: decreased
[2]
  SIVA2 levels in activated PBMCs: but not genotoxic stress, increase SIVA2 levels

## [N-]=[N+]=CC(=O)CC[C@H](N)C(=O)O [DON, 6-diazo-5-oxo-L-norleucine]
[1]; HEK-293T, DON 50 μM last 16 h, MG132 last 6 h
  MG132-induced SIVA2 stabilization: does not affect MG132-induced stabilization
[1]; HEK-293T, DON 50 μM last 16 h of 28 h
  TRAF2-induced SIVA2 stabilization: interferes with TRAF2-induced SIVA2 stabilization
[1]; HEK-293T, DON as in FIG. 3D
  NIK-mediated stabilization of wild-type SIVA2: blocks the NIK-mediated stabilization of wild-type SIVA2
  residual stabilization by NIK of the SIVA2 6SA mutant: has no effect on the residual stabilization by NIK of the SIVA2 6SA mutant

## CC(C)C[C@@H](C=O)NC(=O)[C@H](CC(C)C)NC(=O)[C@H](CC(C)C)NC(=O)OCc1ccccc1 [MG132] (Cbz-Leu-Leu-Leu-aldehyde)
[1]; [5]
  accumulation of polyubiquitinated SIVA2: enhances accumulation of the polyubiquitinated protein
  stabilization of transiently expressed SIVA2: stabilizes transiently expressed SIVA2
[1]; HEK-293T, MG132 25 uM last 6 h of 24 h
  stabilization of SIVA2 (1-58) (SIVA N-terminus): stabilizes SIVA N-terminus
[1]; HEK-293T, MG132 added 18 h after transfection for 6 h
  stabilization of SIVA2 serine mutants: stabilize the SIVA2 serine mutants that cannot be stabilized by NIK
[2]
  SIVA2 levels in activated PBMCs: increase SIVA2 levels

B1: HIS-SIVA2 (1-58) (other, not shown: small tags and cut ends)
chain: MPKRSCPFADVAPLQLKVRVSQRELSRGVCAERYSQEVFDPSGVASIACSSCVRAVDG
notes: also called SIVA N-terminus
[3]
  binding result: binds

B2: HIS-SIVA2 (other, not shown: small tags and cut ends)
chain: MPKRSCPFADVAPLQLKVRVSQRELSRGVCAERYSQEVFDPSGVASIACSSCVRAVDGKAVCGQCERALCGQCVRTCWGCGSVACTLCGLVDCSDMYEKVLCTSCAMFET
notes: Expressed by transfection in HEK293T cells
[3]
  binding result: binds

B3: CD70: CD27 ligand; mCD70 produced by large-scale transfection of HEK-293T cells (protein, UniProt O55237 1-195, looked up)
CD70 antigen: MPEEGRPCPWVRWSGTAFQRQWPWLLLVVFITVFCCWFHCSGLLSKQQQRLLEHPEPHTAELQLNLTVPRKDPTLRWGAGPALGRSFTHGPELEEGHLRIHQDGLYRLHIQVTLANCSSPGSTLQHRATLAVGICSPAAHGISLLRGRFGQDCTVALQRLTYLVHGDVLCTNLTLPLLPSRNADETFFGVQWICP
[4]
  SIVA1 expression: did not affect
[1]; EcR-293-CD27-SIVA2 cells, ponasterone
  stabilization of inducibly expressed SIVA2: stabilized
[2]
  SIVA2 expression: extensive enhancement

B4: CD154: CD40 ligand; hCD40L produced by large-scale transfection of HEK-293T cells (protein, UniProt P29965 113-261, looked up)
CD40 ligand, soluble form: MQKGDQNPQIAAHVISEASSKTTSVLQWAEKGYYTMSNNLVTLENGKQLTVKRQGLYYIYAQVTFCSNREASSQAPFIASLCLKSPGRFERILLRAANTHSSAKPCGQQSIHLGGVFELQPGASVFVNVTDPSQVSHGTGFTSFGLLKL
[4]
  SIVA1 expression: did not affect
[2]
  SIVA2 expression: extensive enhancement
